Results as given in patent publication EP4389751A1, “HETEROCYCLIC COMPOUNDS AND USES THEREOF” (Kumquat Biosciences Inc., priority 2021, dated 2024).

Biological target: T1, K-Ras G12S (Homo sapiens, UniProt P01116, G12S)
T1 construct: made in house; host or cells: E. coli (e.g., BL21 (DE3))
Assay: HTRF assay of the K-Ras / SOS1 interaction
Assay type: biochemical
Settings: IC50 (against K-Ras G12D) to IC50 (against K-Ras G12S)
Text: This assay can be also used to assess a selective inhibition or reduction of signaling output of a mutant Ras protein relative to a wildtype, or relative to a different mutant Ras protein. For example, the equilibrium interaction of wildtype Kras or K-Ras mutant (e.g., wildtype or a mutant thereof including those mentioned in Example 6) with SOS1 (e.g., hSOS1) can be assessed as a proxy or an indication for a subject compound's ability to bind and inhibit Ras protein. HTRF assay detects from (i) a fluorescence resonance energy transfer (FRET) donor (e.g., antiGST-Europium) that is bound to GST-tagged K-Ras mutant to (ii) a FRET acceptor (e.g., anti-6His-XL665) bound to a His-tagged hSOS 1.
The assay buffer can contain ~5 mM HEPES pH 7.4, -150 mM NaCI, - 1 mM DTT, 0.05% BSA and 0.0025% (v/v) Igepal. A Ras working solution is prepared in an assay buffer containing typically a suitable amount of the protein construct (e.g., GST-tagged K-Ras mutant) and the FRET donor (e.g., antiGST-Eu(K) from Cisbio, France). A SOS1 working solution is prepared in an assay buffer containing suitable amount of the protein construct (e.g., His-hSOS1) and the FRET acceptor (e.g., anti-6His-XL665 from Cisbio, France). A suitable amount of the protein construct will depend on the range of activity or range of IC50 values being detected or under investigation. For detecting IC50 within a range of 500 nM, the protein constructs of the same range of molarity can be utilized.
A fixed volume of DMSO with or without test compound is transferred into a 384-well plate. Ras working solution is added to all wells of the test plate. SOS1 working solution is added to all wells except for those that are subsequently filled the inhibitor control solution. Upon incubation for about 10 minutes or longer, the fluorescence is measured with a M1000Pro plate reader (Tecan) using HTRF detection (excitation 337nm, emission 1 : 620nm, emission 2: 665nm). Compounds are tested in duplicates at different concentrations (for example, 10 µM, 2.5 µM, 0.63 µM, 0.16 µM, 0.04 µM, 0.01 µM test compound). The ratiometric data (i.e., emission 2 divided by emission 1) is used to calculate IC50 values against Ras using GraphPad Prism (GraphPad software). Following this general procedure, samples were tested with or without a subject compound disclosed herein including compounds exemplified in Table 3 to assess their abilities to inhibit K-Ras G12S relative to another mutant (e.g., K-Ras G12D). Signaling output measured in terms of IC50 values can be obtained, a ratio of IC50 against one mutant relative to another mutant can be calculated. For instance, a selective reduction of K-Ras G12S signaling output can be evidenced by a ratio greater than one. In particular, a selective reduction of K-Ras G12S signaling relative to K-Ras G12D signaling is evidenced as the ratio of IC50 (against K-Ras G12D) to IC50 (against K-Ras G12S) is greater than 1. […]

Row | Compound | Ratio of IC50 KRAS G12D vs. IC50 KRAS G12S
1 | 1-(7-(7-(2-amino-7-fluorobenzo[d]thiazol-4-yl)-6-chloro-8-fluoro-2-(((2R,7aS)-2-fluorotetrahydro-1H-pyrrolizin-7a(5H)-yl)methoxy)quinazolm-4-yl)-2,7-diazaspiro[3.5]nonane-2-carbonyl)-1H-imidazole-4-carbonitrile [Compound A179] | A (A: indicates that the ratio of IC50 against KrasG12D vs. IC50 against KrasG12S is 1-fold or greater)
2 | Cc1cnn(C(=O)N2C3CCC2CN(c2nc(OC[C@@]45CCCN4C[C@H](F)C5)nc4c(F)c(-c5ccc(F)c6sc(N)nc56)c(Cl)cc24)C3)c1 [Compound A113, (3-(7-(2-amino-7-fluorobenzo[d]thiazol-4-yl)-6-chloro-8-fluoro-2-(((2R,7aS)-2-fluorotetrahydro-1H-pyrrolizin-7a(5H)-yl)methoxy)quinazolin-4-yl)-3,8-diazabicyclo[3.2.1]octan-8-yl)(4-methyl-1H-pyrazol-1-yl)methanone] | A (A: indicates that the ratio of IC50 against KrasG12D vs. IC50 against KrasG12S is 1-fold or greater)
3 | C[C@H](Oc1nc(N2CCN(C(=O)Nc3nccs3)CC(O)C2)c2cc(Cl)c(-c3ccc(F)c4sc(N)c(C#N)c34)c(F)c2n1)[C@@H]1CCCN1C (stereo partly drawn) [Compound A118, 4-(7-(2-amino-3-cyano-7-fluorobenzo[b]thiophen-4-yl)-6-chloro-8-fluoro-2-((S)-1-((S)-1-methylpyrrolidin-2-yl)ethoxy)quinazolin-4-yl)-6-hydroxy-N-(thiazol-2-yl)-1,4-diazepane-1-carboxamide] | A (A: indicates that the ratio of IC50 against KrasG12D vs. IC50 against KrasG12S is 1-fold or greater)
4 | N#Cc1cnn(C(=O)N2C3CCC2CN(c2nc(OC[C@@]45CCCN4C[C@H](F)C5)nc4c(F)c(-c5cc(O)cc6ccccc56)ccc24)C3)c1 [Compound A120, 1-(3-(8-fluoro-2-(((2R,7aS)-2-fluorotetrahydro-1H-pyrrolizin-7a(5H)-yl)methoxy)-7-(3-hydroxynaphthalen-1-yl)quinazolin-4-yl)-3,8-diazabicyclo[3.2. 1]octane-8-carbonyl)-1H-pyrazole-4-carbonitrile] | A (A: indicates that the ratio of IC50 against KrasG12D vs. IC50 against KrasG12S is 1-fold or greater)
5 | N#Cc1c(N)sc2c(F)ccc(-c3c(Cl)cc4c(N5CCN(CC6CC6)C6(CN(C(=O)n7cncn7)C6)C5)nc(OC[C@@]56CCCN5C[C@H](F)C6)nc4c3F)c12 [Compound A139, 2-amino-4-(6-chloro-4-(5-(cyclopropylmethyl)-2-(1H-1,2,4-triazole-1-carbonyl)-2,5,8-triazaspiro[3.5]nonan-8-yl)-8-fluoro-2-(((2R,7aS)-2-fluorotetrahydro-1H-pyrrolizin-7a(5H)-yl)methoxy)quinazolin-7-yl)-7-fluorobenzo[b]thiophene-3-carbonitrile] | A (A: indicates that the ratio of IC50 against KrasG12D vs. IC50 against KrasG12S is 1-fold or greater)
6 | Nc1nc2c(-c3c(Cl)cc4c(NC5CCC6(C5)CN(C(=O)n5cncn5)C6)nc(OC[C@@]56CCCN5C[C@H](F)C6)nc4c3F)ccc(F)c2s1 (stereo partly drawn) [Compound A142, (6-((7-(2-amino-7-fluorobenzo[d]thiazol-4-yl)-6-chloro-8-fluoro-2-(((2R,7aS)-2-fluorotetrahydro-1H-pyrrolizin-7a(5H)-yl)methoxy)quinazolin-4-yl)amino)-2-azaspiro[3.4]octan-2-yl)(1H-1,2,4-triazol-1-yl)methanone] | A (A: indicates that the ratio of IC50 against KrasG12D vs. IC50 against KrasG12S is 1-fold or greater)
